Columns and labels:
[1] = system: OVCAR8 and SKOV-3 OC cell lines; test: MTT combination study of SU056 and paclitaxel; type: cell-based, human; settings: paclitaxel at 0.1, 0.5, and 1 nM doses
Protocol: Cell viability assay: Cell viability was assessed using the standard MTT assay protocol. In brief, 5,000 cells were plated in each well of 96 well plates (Corning-Costar, #3598) and allowed to attach for 24 h. Cells were treated with a respective concentration of compounds for respective time points. A stock solution of each compound was prepared in DMSO. DMSO concentration was kept constant and maintained below 0.1%. After each incubation, 50 μL of 0.5 mg/ml MTT solution prepared in 1×PBS was added to each well followed by 1 h incubation at 37° C. and 5% CO2. MTT solution and media were then removed, and MTT formazan crystals were dissolved in 100 μL of DMSO per well. Absorbance at 570 nm for each well was recorded using a multimode plate reader to quantitate MTT crystallization. Each absorbance value was normalized to controls and converted into percent cell viability.
Combination index calculation: The combination index (CI) for paclitaxel and SU093 or SU056 was calculated using the Chou-Talalay Method (Chou, 2010). CI values were computed via CampuSyn software. CI<1, CI=1, and CI>1 indicate the synergistic, additive and antagonistic effect of the combination.
Combination index values for paclitaxel and SU056. […] Scale bar, 250 μm FIG. 7E) Spheroid formation was quantified after 7 days of incubation. […] Tumor sections were stained with Ki67, and slides were scored for K167 staining. […]

[2] = target: T1, YB-1 in OVCAR4, OVCAR8, and SKOV3 cells (Homo sapiens, UniProt P67809); test: YB-1 inhibition time kinetics (YB-1 ELISA); type: cell-based; settings: 5 μM treatment for 24 h; all three OC cells
T1 construct: endogenous in cells; host or cells: OVCAR4, OVCAR8, SKOV3
Protocol: Out of six targets identified, we selected proteins whose thermal shift is above 5° in the presence of SU056 for further study of protein expression after treatment. […] To study the in vivo effects of SU056 treatment, we analyzed ID8 tumor xenograft samples via immunohistochemistry (IHC). […] To identify the broader effects of SU056 on YB-1 and its downstream protein/activity in different ovarian cancer cell lines, we selected six different cell lines and treated them with SU056 (2.5 μM) for 12 h. Cells were analyzed for YB-1 and CD44 expression and Multidrug resistance 1 (MDR1, ABC pump mediated efflux). […] Finally, we tested the time kinetics and dose-dependent effects of SU056 on YB-1 expression. OVCAR4, OVCAR8, and SKOV3 cells were treated with SU056 (1, 2.5, and 5 μM) for 3, 6, 12, and 24 h and YB-1 expression was measured using YB-1 ELISA. […]
Total YB-1 sandwich ELISA: Total YB-1 protein level was analyzed using PathScan® Total YB1 Sandwich ELISA Kit (Cell Signaling, #12543) by following the manufacturer's protocol.
(§1) FIGS. 4A-4E: SU056 inhibits YB-1. […] FIG. 4C) Respective OC cells were treated with 2.5 μM SU056 for 12 h and YB-1 & CD44 expression and multidrug resistance activity was measured as described in the ‘method’ section. The % inhibition was calculated and compared to the control for the respective cell line. […]

4T1 tumor xenograft = test: 4T1 tumor xenograft; type: in vivo, BALB/c mice; settings: SU056 50 mg/kg, oral gavage
Protocol: Mice were subcutaneously injected with 4T1 cells and drug treatment started after three day of implantation. Mice were given either vehicle (40% PEG in saline) or SU056 (50 mg/kg) through oral route using oral gavage. FIG. 14A) Tumor volume (4T1) as a function of time. FIG. 14B) Tumor weight (4T1) at the end of the study. FIG. 14C) Body weight (4T1) as a function of time. FIG. 14D) Representative images of tumor (4T1) at the end of study. Combination of Paclitaxel and SU056 in 4T1 xenograft model. FIG. 14E) Tumor volume (4T1) as a function of time. FIG. 14F) Tumor weight (4T1) at the end of the study. FIG. 14G) Body weight (4T1) as a function of time.

[3] = system: Multidrug resistance 1 (MDR1, ABC pump mediated efflux); test: Multidrug Resistance Assay (fluorometric MDR assay); type: cell-based; settings: 2.5 μM for 12 h; six different OC cell lines
Protocol: Out of six targets identified, we selected proteins whose thermal shift is above 5° in the presence of SU056 for further study of protein expression after treatment. […] To study the in vivo effects of SU056 treatment, we analyzed ID8 tumor xenograft samples via immunohistochemistry (IHC). […] To identify the broader effects of SU056 on YB-1 and its downstream protein/activity in different ovarian cancer cell lines, we selected six different cell lines and treated them with SU056 (2.5 μM) for 12 h. Cells were analyzed for YB-1 and CD44 expression and Multidrug resistance 1 (MDR1, ABC pump mediated efflux). […] Finally, we tested the time kinetics and dose-dependent effects of SU056 on YB-1 expression. OVCAR4, OVCAR8, and SKOV3 cells were treated with SU056 (1, 2.5, and 5 μM) for 3, 6, 12, and 24 h and YB-1 expression was measured using YB-1 ELISA. […] 5 μM treatment for 24 h inhibited YB-1 completely (100%) in all three OC cells (FIG. 4E). […]
as §1

[4] = system: OVCAR4, OVCAR5 and ID8 cells; test: Cell viability (MTT) assay, ovarian cancer cell lines; type: cell-based; settings: 48 h of treatment
Excerpt: We tested the relationship between AzPs dose and the viability of human ovarian cancer cell lines and the ID8 murine ovarian cancer cell line.
FIG. 1A) Lead optimization of SU093 to obtain SU056. FIG. 1B) IC50 values of SU093 and SU056 on various ovarian cancer cells. Clonogenic survival of OC cells treated with SU093 or SU056. […] FIG. 1C) Representative colony formation from respective wells. FIG. 1D) Number of colonies formed after SU093 and SU056 treatment. […] FIG. 1F) Cell cycle distribution of propidium iodide (PI)-stained OVCAR8, SKOV3, and ID8 cells. […] FIG. 1G) Effects of SU093 and SU056 on apoptotic cell death analyzed by Annexin-FITC staining. […] FIG. 1H) Cell migration assay.

YB-1 = YB-1 (Homo sapiens, UniProt P67809); test: Cellular Thermal Shift Assay (CETSA) in OVCAR8 cells; type: binding; parameters: endogenous in cells; host or cells: OVCAR8; settings: SU056 2.5 μM, 1.5 h, read-out: increase in thermal stability (Tm shift) of YB-1
Protocol: The cellular thermal shift assay (CETSA) is based on the principle of protein-ligand interactions causing a shift in protein thermal stability (Savitski et al., 2014). When a protein interacts with ligand, its thermal stability increases, and this principle allows identification of which protein targets that are engaged by small molecules or drug candidates. We used this assay to identify protein targets of SU056. OVCAR8 cells were treated with SU056 (2.5 μM) for 1.5 h, and protein lysates were analyzed for a thermal shift. The heat maps represent the thermal stability of 804 soluble proteins in the presence and absence of SU056 compare with 37° C. (FIG. 3A).
Cellular Thermal Shift Assay (CETSA): The assay was performed as previously described (Savitski et al., 2014). Briefly, OVCAR8 cells were treated with vehicle (DMSO) or SU056 (2.5 μM) at 70-80% confluency for 1.5 h. Cells were harvested and washed with 1×PBS twice. Cells were pelleted and resuspended in PBS. 10 different PCR tubes with 1×10^6 cells/tube (in 100 μL PBS) were prepared for both the groups. Tubes were exposed to respective temperatures (37, 41, 44, 47, 50, 53, 56, 59, 63, 67° C.) for 3 min using a thermal cycler (Bio-Rad, CA, USA) followed by 2 min incubation at room temperature.

Sequence of YB-1 (P67809 whole entry): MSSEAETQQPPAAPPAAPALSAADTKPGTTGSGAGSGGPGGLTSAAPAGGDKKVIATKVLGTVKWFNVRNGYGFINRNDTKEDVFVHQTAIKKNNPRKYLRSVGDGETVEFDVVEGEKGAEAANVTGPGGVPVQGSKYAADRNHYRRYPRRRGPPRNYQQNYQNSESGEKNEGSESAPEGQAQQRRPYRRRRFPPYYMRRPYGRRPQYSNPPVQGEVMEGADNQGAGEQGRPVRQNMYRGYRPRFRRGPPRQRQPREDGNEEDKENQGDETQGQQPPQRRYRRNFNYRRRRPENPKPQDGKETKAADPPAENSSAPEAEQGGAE
T1 sequence (P67809 whole entry): as above

**Q.** What does the source list for `O=C1OCC2=C1C(c1cccc(F)c1)c1cc3c(cc1N2CCO)OCO3` (stereo not drawn) [SU056, 9-(3-fluorophenyl)-5-(2-hydroxyethyl)-6,9-dihydro-[1,3]dioxolo[4,5-g]furo[3,4-b]quinolin-8(5H)-one]?
**A.** effect on cytotoxic effects of paclitaxel (MTT) [1]: significantly potentiates the cytotoxic effects of paclitaxel; YB-1 inhibition [2]: 100%; 4T1 tumor xenograft growth (4T1 tumor xenograft): inhibit 4T1 tumor xenograft; decrease in MDR expression [3]: 41-63%; decrease of IC50 compared to SU093 [4]: up to 2 fold; ΔTm at 2.5 µM (YB-1): 5.92 ± 0.86 °C

Reference: patent publication US20240016784A1, “Y BOX BINDING PROTEIN 1 INHIBITORS” (Oregon Health & Science University, priority 2020, published 2024)
